Test results taken from ChEMBL document CHEMBL3991601, “The target landscape of clinical kinase drugs” (Science, 2017).
Calls of active or inactive are those of the source. Rule as the data show it, for most assays here: actives have a measured Kd and inactives only a lower limit.

How the values were obtained:
[1] = target: Serine/threonine-protein kinase N2 (Homo sapiens, UniProt Q16513)
[2] = target: T1, Mitogen-activated protein kinase kinase kinase 3 (Homo sapiens, UniProt Q99759)
T1 sequence (Q99759 whole entry): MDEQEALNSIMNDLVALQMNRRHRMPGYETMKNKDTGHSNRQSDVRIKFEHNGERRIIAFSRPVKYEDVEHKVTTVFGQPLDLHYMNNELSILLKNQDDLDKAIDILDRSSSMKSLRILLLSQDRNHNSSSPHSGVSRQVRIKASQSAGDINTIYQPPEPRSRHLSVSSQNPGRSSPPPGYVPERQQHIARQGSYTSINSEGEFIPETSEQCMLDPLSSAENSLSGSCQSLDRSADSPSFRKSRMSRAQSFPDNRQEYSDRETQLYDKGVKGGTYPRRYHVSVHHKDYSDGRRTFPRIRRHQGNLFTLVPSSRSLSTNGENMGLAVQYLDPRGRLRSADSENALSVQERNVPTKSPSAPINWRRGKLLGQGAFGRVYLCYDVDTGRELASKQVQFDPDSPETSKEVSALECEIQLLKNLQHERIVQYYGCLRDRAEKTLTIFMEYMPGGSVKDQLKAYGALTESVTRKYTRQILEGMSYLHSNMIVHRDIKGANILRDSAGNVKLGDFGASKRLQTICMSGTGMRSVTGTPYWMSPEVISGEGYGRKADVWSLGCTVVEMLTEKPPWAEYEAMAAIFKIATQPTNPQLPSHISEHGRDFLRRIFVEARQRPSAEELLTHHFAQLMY

[3] = target: Mitogen-activated protein kinase kinase kinase kinase 1 (Homo sapiens, UniProt Q92918)
[4] = target: TRAF2 and NCK-interacting protein kinase (Homo sapiens, UniProt Q9UKE5)
[5] = target: T2, Serine/threonine-protein kinase Nek9 (Homo sapiens, UniProt Q8TD19)
T2 sequence (Q8TD19 whole entry): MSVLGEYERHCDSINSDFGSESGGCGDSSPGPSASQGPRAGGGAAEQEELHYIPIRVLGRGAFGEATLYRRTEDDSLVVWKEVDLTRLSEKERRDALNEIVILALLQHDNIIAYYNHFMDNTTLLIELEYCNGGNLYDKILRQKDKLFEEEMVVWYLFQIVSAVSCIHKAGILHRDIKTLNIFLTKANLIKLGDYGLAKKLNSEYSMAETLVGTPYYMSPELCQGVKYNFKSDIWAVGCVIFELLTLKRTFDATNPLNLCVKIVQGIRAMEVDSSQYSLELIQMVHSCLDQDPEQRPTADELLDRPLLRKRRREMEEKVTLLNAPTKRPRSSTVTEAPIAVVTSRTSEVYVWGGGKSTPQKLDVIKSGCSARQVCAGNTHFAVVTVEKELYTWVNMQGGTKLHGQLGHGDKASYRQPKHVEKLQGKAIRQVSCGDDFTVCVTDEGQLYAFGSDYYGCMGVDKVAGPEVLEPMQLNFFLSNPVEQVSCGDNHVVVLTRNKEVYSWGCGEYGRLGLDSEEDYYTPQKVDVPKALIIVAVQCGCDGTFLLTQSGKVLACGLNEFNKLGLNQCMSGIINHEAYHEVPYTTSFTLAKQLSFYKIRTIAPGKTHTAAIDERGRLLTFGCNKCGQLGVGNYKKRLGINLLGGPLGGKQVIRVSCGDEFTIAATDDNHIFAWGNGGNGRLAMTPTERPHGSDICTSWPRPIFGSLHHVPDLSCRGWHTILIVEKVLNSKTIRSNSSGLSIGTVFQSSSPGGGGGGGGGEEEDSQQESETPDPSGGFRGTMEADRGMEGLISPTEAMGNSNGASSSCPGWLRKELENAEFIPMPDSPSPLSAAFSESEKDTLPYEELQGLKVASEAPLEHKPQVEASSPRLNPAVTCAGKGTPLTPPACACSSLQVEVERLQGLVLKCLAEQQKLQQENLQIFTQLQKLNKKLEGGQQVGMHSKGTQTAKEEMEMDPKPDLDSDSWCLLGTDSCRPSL

[6] = target: NADH dehydrogenase [ubiquinone] 1 alpha subcomplex subunit 13 (Homo sapiens, UniProt Q9P0J0)
TGF-beta receptor type-1 = target: T3, TGF-beta receptor type-1 (Homo sapiens, UniProt P36897)
T3 sequence (P36897 whole entry): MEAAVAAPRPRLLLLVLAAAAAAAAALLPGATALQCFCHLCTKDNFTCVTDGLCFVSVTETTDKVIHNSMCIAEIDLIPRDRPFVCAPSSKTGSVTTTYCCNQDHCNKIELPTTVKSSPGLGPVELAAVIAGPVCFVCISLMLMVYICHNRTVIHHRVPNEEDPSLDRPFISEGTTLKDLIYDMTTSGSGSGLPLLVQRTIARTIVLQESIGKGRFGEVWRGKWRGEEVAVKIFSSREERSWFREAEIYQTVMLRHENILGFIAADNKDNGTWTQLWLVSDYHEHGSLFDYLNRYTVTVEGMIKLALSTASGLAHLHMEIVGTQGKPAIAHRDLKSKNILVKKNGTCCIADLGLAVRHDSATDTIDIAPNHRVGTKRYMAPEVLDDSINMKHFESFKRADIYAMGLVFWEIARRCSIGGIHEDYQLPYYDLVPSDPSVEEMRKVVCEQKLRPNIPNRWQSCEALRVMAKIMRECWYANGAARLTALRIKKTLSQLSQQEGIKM

[7] = target: Insulin-like growth factor 1 receptor (Homo sapiens, UniProt P08069)
[8] = target: T4, Serine/threonine-protein kinase Chk1 (Homo sapiens, UniProt O14757)
T4 sequence (O14757 whole entry): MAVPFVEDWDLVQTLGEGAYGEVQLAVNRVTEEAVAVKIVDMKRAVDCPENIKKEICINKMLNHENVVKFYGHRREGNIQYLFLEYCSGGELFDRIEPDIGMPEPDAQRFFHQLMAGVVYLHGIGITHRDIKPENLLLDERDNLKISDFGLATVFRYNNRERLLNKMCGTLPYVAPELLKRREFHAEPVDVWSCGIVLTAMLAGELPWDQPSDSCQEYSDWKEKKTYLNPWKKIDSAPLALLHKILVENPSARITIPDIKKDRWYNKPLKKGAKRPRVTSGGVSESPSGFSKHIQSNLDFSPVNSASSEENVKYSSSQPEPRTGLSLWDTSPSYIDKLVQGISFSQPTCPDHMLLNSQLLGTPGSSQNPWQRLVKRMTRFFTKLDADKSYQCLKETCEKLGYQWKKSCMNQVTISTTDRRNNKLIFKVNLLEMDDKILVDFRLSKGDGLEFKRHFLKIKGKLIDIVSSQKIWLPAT
Also: in the data inactive means no Kd found up to 30 µM.

Sequence of Serine/threonine-protein kinase N2 (Q16513 whole entry): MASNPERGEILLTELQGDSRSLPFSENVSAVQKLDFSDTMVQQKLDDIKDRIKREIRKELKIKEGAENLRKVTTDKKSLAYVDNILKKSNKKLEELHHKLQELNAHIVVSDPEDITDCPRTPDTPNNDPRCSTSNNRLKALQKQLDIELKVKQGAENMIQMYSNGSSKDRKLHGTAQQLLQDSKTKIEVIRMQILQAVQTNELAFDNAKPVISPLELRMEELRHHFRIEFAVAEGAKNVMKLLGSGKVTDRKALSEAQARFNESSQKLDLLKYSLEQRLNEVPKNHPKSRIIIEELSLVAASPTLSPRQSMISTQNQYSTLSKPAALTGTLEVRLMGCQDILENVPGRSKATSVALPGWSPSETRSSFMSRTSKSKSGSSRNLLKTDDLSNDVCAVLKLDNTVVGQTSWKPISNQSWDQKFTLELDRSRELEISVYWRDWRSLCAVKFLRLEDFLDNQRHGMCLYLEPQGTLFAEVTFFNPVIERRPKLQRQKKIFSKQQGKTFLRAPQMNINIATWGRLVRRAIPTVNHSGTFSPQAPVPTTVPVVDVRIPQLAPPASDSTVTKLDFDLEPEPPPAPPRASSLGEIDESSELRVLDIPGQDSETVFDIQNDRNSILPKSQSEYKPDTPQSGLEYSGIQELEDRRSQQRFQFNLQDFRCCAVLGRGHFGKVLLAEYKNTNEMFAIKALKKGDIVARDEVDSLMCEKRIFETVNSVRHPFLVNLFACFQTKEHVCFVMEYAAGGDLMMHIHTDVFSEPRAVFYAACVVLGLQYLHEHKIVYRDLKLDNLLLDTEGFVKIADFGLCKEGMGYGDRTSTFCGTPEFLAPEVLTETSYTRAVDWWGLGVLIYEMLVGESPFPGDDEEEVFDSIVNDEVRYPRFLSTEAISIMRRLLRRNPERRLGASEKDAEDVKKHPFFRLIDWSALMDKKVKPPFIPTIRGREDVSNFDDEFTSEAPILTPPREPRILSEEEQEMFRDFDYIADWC
Sequence of Mitogen-activated protein kinase kinase kinase kinase 1 (Q92918 whole entry): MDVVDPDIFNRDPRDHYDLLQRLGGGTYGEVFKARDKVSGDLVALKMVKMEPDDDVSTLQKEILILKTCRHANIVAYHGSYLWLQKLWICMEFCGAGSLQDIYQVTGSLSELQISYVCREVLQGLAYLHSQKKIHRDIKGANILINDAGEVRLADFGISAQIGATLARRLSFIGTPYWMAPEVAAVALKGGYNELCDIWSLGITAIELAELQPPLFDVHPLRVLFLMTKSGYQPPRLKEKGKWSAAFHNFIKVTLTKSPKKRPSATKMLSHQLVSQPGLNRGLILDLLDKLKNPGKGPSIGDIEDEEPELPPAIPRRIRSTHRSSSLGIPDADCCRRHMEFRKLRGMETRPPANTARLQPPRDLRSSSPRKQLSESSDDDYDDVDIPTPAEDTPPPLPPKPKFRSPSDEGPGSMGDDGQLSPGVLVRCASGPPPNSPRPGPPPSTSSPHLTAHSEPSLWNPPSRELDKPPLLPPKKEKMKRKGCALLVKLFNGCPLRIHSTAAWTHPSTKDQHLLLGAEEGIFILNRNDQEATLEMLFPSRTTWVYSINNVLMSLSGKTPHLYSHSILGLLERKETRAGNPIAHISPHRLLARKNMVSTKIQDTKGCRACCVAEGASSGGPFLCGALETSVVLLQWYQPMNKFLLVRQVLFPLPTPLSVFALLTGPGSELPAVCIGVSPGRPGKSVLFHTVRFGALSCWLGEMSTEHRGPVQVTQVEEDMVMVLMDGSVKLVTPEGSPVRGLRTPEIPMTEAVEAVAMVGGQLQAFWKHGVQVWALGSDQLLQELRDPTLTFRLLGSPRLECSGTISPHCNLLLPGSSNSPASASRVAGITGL
Sequence of Insulin-like growth factor 1 receptor (P08069 31-736 limits assumed): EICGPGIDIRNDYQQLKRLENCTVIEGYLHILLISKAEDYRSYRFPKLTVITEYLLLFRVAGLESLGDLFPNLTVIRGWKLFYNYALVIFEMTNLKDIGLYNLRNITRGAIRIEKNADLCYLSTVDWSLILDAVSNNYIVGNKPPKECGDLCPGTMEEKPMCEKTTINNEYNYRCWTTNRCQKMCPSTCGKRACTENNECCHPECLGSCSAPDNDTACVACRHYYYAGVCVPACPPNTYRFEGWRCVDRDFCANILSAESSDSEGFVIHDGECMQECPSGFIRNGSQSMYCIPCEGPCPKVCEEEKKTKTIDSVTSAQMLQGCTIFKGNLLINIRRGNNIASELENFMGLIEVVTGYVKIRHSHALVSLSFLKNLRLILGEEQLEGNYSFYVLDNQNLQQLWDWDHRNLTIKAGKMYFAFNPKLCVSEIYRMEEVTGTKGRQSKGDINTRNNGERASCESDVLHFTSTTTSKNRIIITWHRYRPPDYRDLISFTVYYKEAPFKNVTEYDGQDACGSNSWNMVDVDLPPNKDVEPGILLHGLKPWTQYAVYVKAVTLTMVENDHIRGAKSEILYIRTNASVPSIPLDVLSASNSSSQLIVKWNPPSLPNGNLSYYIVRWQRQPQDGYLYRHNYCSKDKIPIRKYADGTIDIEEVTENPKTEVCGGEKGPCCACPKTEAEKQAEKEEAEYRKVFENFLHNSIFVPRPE
Sequence of Insulin-like growth factor 1 receptor (P08069 741-1367 limits assumed): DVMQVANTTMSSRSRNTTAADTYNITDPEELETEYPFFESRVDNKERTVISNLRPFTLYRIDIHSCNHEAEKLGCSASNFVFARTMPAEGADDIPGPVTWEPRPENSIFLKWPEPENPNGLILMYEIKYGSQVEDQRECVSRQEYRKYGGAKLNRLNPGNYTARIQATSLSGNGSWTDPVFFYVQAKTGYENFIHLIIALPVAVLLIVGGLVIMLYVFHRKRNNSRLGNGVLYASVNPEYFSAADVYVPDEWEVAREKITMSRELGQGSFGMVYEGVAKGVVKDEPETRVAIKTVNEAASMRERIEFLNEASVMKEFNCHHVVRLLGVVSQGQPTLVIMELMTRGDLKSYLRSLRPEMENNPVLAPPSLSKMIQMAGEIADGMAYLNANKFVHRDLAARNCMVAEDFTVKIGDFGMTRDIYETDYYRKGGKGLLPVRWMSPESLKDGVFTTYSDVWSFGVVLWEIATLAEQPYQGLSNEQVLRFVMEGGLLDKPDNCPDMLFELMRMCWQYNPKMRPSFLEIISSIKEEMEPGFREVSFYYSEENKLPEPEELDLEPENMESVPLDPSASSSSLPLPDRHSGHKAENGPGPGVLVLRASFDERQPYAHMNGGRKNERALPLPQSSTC
Sequence of TRAF2 and NCK-interacting protein kinase (Q9UKE5 whole entry): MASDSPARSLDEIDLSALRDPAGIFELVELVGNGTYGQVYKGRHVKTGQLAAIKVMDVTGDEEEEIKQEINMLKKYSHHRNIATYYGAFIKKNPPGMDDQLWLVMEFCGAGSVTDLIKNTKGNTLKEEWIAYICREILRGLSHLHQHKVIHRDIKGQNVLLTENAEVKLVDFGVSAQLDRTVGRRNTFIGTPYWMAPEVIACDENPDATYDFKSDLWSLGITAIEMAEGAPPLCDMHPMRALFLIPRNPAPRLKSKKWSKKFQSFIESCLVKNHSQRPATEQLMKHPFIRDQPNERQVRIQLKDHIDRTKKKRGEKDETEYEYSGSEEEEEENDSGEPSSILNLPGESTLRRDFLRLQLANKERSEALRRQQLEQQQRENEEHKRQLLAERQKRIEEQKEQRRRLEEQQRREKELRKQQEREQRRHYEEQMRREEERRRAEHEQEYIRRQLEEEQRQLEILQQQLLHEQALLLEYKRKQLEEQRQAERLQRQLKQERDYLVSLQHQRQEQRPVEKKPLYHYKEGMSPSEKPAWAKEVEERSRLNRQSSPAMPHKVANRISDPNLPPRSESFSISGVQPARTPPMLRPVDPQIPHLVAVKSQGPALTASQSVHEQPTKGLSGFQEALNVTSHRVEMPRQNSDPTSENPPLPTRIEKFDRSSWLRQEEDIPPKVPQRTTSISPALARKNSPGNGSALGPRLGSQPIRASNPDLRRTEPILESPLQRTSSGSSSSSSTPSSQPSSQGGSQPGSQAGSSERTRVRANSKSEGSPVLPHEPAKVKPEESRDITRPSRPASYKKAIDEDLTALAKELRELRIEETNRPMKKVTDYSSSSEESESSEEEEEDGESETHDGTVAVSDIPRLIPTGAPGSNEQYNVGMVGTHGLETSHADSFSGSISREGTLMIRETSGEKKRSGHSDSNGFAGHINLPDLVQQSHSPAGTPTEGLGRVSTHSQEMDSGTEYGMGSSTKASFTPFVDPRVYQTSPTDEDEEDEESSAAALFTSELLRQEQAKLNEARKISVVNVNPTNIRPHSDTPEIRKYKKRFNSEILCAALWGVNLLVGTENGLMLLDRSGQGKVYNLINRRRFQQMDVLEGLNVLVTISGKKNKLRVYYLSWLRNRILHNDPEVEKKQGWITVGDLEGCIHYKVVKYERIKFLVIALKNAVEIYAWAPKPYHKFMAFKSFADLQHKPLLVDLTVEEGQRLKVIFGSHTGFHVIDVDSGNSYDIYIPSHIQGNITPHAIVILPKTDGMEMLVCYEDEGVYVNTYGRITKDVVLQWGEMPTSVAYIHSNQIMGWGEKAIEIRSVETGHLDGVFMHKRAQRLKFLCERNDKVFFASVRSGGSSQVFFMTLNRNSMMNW
Sequence of NADH dehydrogenase [ubiquinone] 1 alpha subcomplex subunit 13 (Q9P0J0 whole entry, one chain of several): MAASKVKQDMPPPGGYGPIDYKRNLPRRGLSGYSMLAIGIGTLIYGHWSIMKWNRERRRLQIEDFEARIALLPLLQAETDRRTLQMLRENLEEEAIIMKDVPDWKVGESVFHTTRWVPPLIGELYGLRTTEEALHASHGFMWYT

Row | Kd [1] | Kd [6] | SMILES | Kd [2] | Kd [3] | Kd [4] | Kd [5] | Kd (TGF-beta receptor type-1) | Kd [7] | Kd [8]
1 | > 30 µM (inactive) | > 30 µM (inactive) | CCN(CCCOc1ccc2c(Nc3cc(CC(=O)Nc4cccc(F)c4)n[nH]3)ncnc2c1)CCOP(=O)(O)O [BARASERTIB] | > 30 µM (inactive) | > 30 µM (inactive) | > 30 µM (inactive) | > 30 µM (inactive) | > 30 µM (inactive) |  | 
2 |  | > 30 µM (inactive) | COc1cc2c(Oc3ccc4[nH]c(C)cc4c3F)ncnc2cc1OCCCN1CCCC1 [CEDIRANIB] |  |  |  |  |  |  | 
3 | > 30 µM (inactive) | > 30 µM (inactive) | CNC(=O)c1cc(COc2nnc(Nc3ccc(Cl)cc3)c3ccoc23)ccn1 [TELATINIB] | > 30 µM (inactive) | > 30 µM (inactive) |  | > 30 µM (inactive) | > 30 µM (inactive) | > 30 µM (inactive) | > 30 µM (inactive)
4 | > 30 µM (inactive) | > 30 µM (inactive) | COc1ccc(-c2ccc3ncc4c(c3c2)n(-c2ccc(N3CCNCC3)c(C(F)(F)F)c2)c(=O)n4C)cn1 [BGT-226 FREE BASE] | > 30 µM (inactive) | > 30 µM (inactive) |  | > 30 µM (inactive) | > 30 µM (inactive) | > 30 µM (inactive) | > 30 µM (inactive)
5 |  | > 30 µM (inactive) | COc1cc2c(N3CCN(C(=O)Nc4ccc(OC(C)C)cc4)CC3)ncnc2cc1OCCCN1CCCCC1 [TANDUTINIB] |  |  |  |  |  |  | 
6 | 2.26 µM (active) | > 30 µM (inactive) | O=S(=O)(c1cccc2c(O)nccc12)N1CCCNCC1 [HYDROXYFASUDIL] | > 30 µM (inactive) | > 30 µM (inactive) | > 30 µM (inactive) | > 30 µM (inactive) |  | > 30 µM (inactive) | > 30 µM (inactive)
7 |  | > 30 µM (inactive) | CC1(C)CNc2cc(NC(=O)c3cccnc3NCc3ccncc3)ccc21 [MOTESANIB] |  |  |  |  |  |  | 
8 |  | > 30 µM (inactive) | Cn1cnc2c(F)c(Nc3ccc(Br)cc3Cl)c(C(=O)NOCCO)cc21 [SELUMETINIB] |  |  |  |  |  |  | 
9 |  | > 30 µM (inactive) | Cn1c(=O)n(-c2ccc(C(C)(C)C#N)cc2)c2c3cc(-c4cnc5ccccc5c4)ccc3ncc21 [DACTOLISIB] | > 30 µM (inactive) | > 30 µM (inactive) | > 30 µM (inactive) | > 30 µM (inactive) | > 30 µM (inactive) |  | 
10 | > 30 µM (inactive) | > 30 µM (inactive) | Cc1cc(-c2cc(OC(=O)c3ccccc3)ccc2Cl)cc2nnc(Nc3ccc(OCCN4CCCC4)cc3)nc12 [TG100-801] | > 30 µM (inactive) |  | > 30 µM (inactive) | > 30 µM (inactive) | > 30 µM (inactive) | > 30 µM (inactive) | > 30 µM (inactive)
11 |  | > 30 µM (inactive) | CN(C)C/C=C/C(=O)Nc1cc2c(Nc3ccc(F)c(Cl)c3)ncnc2cc1O[C@H]1CCOC1 [AFATINIB] |  |  |  |  |  |  | 

Row | SMILES | Kd [1] | Kd [6] | Kd [2] | Kd [3] | Kd [4] | Kd [5] | Kd (TGF-beta receptor type-1) | Kd [7] | Kd [8]
12 | N#CCNC(=O)c1ccc(-c2ccnc(Nc3ccc(N4CCOCC4)cc3)n2)cc1 [MOMELOTINIB] | > 30 µM (inactive) | > 30 µM (inactive) | > 30 µM (inactive) | > 30 µM (inactive) |  | 0.474 µM (active) | > 30 µM (inactive) | > 30 µM (inactive) | > 30 µM (inactive)
13 | CC(C)CC(=O)Nc1[nH]nc2c1CN(C(=O)C1CCN(C)CC1)C2(C)C [PHA-793887] | > 30 µM (inactive) | > 30 µM (inactive) | > 30 µM (inactive) | > 30 µM (inactive) |  | > 30 µM (inactive) | > 30 µM (inactive) | > 30 µM (inactive) | > 30 µM (inactive)
14 | C=CCn1c(=O)c2cnc(Nc3ccc(N4CCN(C)CC4)cc3)nc2n1-c1cccc(C(C)(C)O)n1 [ADAVOSERTIB] |  | > 30 µM (inactive) | > 30 µM (inactive) | > 30 µM (inactive) | > 30 µM (inactive) | > 30 µM (inactive) | > 30 µM (inactive) |  | 
15 | C[C@]1(O)C[C@@H](c2nc(-c3ccc4ccc(-c5ccccc5)nc4c3)c3c(N)nccn32)C1 [LINSITINIB] |  | > 30 µM (inactive) | > 30 µM (inactive) | > 30 µM (inactive) | > 30 µM (inactive) | > 30 µM (inactive) | > 30 µM (inactive) |  | 
16 | O=S(=O)(c1cccc2cnccc12)N1CCCNCC1 [FASUDIL] |  | > 30 µM (inactive) | > 30 µM (inactive) | > 30 µM (inactive) | > 30 µM (inactive) | > 30 µM (inactive) | > 30 µM (inactive) | > 30 µM (inactive) | 
17 | CN(c1ncccc1CNc1nc(Nc2ccc3c(c2)CC(=O)N3)ncc1C(F)(F)F)S(C)(=O)=O [PF-00562271] |  | > 30 µM (inactive) | > 30 µM (inactive) | 3.98 µM (active) |  | > 30 µM (inactive) | > 30 µM (inactive) |  | 
18 | CCc1nc(C(N)=O)c(Nc2ccc(N3CCC(N4CCN(C)CC4)CC3)c(OC)c2)nc1NC1CCOCC1 [GILTERITINIB] | > 30 µM (inactive) | > 30 µM (inactive) | > 30 µM (inactive) |  | > 30 µM (inactive) | > 30 µM (inactive) | > 30 µM (inactive) | > 30 µM (inactive) | > 30 µM (inactive)
19 | Cn1cc(-c2[nH]c3cc(NC(=O)[C@H](N)C4CCCCC4)cc4c3c2C=NNC4=O)cn1 | > 30 µM (inactive) | > 30 µM (inactive) | > 30 µM (inactive) | > 30 µM (inactive) | 0.251 µM | > 30 µM (inactive) | > 30 µM (inactive) | > 30 µM (inactive) | 
20 | CN1CCN(c2nc(C3=C(c4c[nH]c5ccccc45)C(=O)NC3=O)c3ccccc3n2)CC1 [SOTRASTAURIN] |  | > 30 µM (inactive) | > 30 µM (inactive) | > 30 µM (inactive) | 0.038 µM | > 30 µM (inactive) | > 30 µM (inactive) | > 30 µM (inactive) | > 30 µM (inactive)
